We go through 62 molecules from the supplement of paper PMC8837787.

The test system of this assay is Saccharomyces cerevisiae ABC16-Green Monster. Put plainly: growth inhibition at single dose (up to 150 µM), below the 70% cut-off for dose-response; higher = more potent. Particulars: 18 h; 30 °C; YPD. Summed up: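 Data are given as percent growth inhibition. Log-phase drug-sensitive S. cerevisiae ABC16-Green Monster cells (OD600 0.1–0.2, 200 µl per well in 96-well plates) were treated in biological duplicates with each library compound at a single 150 µM dose, with untreated cultures alongside, and OD600 was measured at 0 h and after 18 h at 30 °C. Compounds falling below 70% in both replicates were not taken to dose-response.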

As for `O=C(Nc1ncccc1O)c1ccc(-n2ccnc2)cc1`, the “growth inhibition at single dose” value was < 70%.
The same measure for `CCCCN(CCCC)c1c(C#N)cc(S(=O)(=O)Nc2ccccc2)cc1C#N`: < 70%; for `COc1cc2cc(C(=O)Nc3ccccc3)c(N)nc2cc1OC`: < 70%; for `CCCCCC(=O)N1c2ccccc2N=C2CC(c3ccc(OC)c(OC)c3)CC(O)=C2C1c1ccc(C(F)(F)F)cc1` (configuration not stated): < 70%.
The result for `COc1ccc(C2c3ccc4ccccc4c3Oc3ncn(CCCn4ccnc4)c(=N)c32)cc1OC` (configuration not stated) reads < 70%.
The result for `Cc1cc2nc(NC(=O)C(C)(C)C)nc(Cl)c2n1Cc1ccc(Cl)cc1` reads < 70%; that for `CN(CC(=O)Nc1ccccc1N1CCCC1)Cc1ccc2ccccc2c1`, < 70%; that for `CCCCCCc1cc(O)c2c3c(c(=O)oc2c1)CCC(C)C3` (configuration not stated), < 70%.
Take `CN1CCN(S(=O)(=O)c2ccc(-c3ccc4c(Nc5ccc6nn[nH]c6c5)ccnc4c3)cc2)CC1`: the “growth inhibition at single dose” value is < 70%.
Consider `Cc1cc(C(=O)Nc2cnn(Cc3ccc(Cl)cc3Cl)c2)no1`, for which the “growth inhibition at single dose” value is < 70%.
The result for `Cc1ccc2c(c1)nc1n2CN(CCN2CCOCC2)CN1Cc1ccccc1` reads < 70%; that for `Clc1cccc(CO[C@H]2CCc3ccccc3[C@@H]2n2ccnn2)c1`, < 70%; that for `CCOC(=O)c1c[nH]c2c(C)cc(Cl)cc2c1=O`, < 70%.
The result for `COC(=O)c1ccc(CNC(=O)NCCN2c3ccccc3CCC2C)cc1` (configuration not stated) reads < 70%.
Turning to `COCc1nn2c3c(nnc2c1-c1ccccc1)C(=O)CC(c1ccccc1)C3` (configuration not stated), the “growth inhibition at single dose” value is < 70%.
The result for `CC(C)(C)c1cnc(NC(=O)c2ccccc2O)s1` reads < 70%; that for `CCOC(=O)c1c(C)[nH]c(C(=O)Nc2ncccc2C)c1C`, < 70%.
The result for `COc1cccc(-c2nc3c(N4CCCC4)cccc3n2CC2CCCN2)n1` (configuration not stated) reads < 70%.
The result for `N#Cc1nc(-c2ccccc2)oc1S(=O)(=O)c1ccc(Cl)cc1` reads < 70%; that for `Cc1ccc2nc(C)cc(Nc3cccc(C(F)(F)F)c3)c2c1`, < 70%; that for `COc1ccc(N(CCc2cccc(C)n2)C(C)=O)cc1`, < 70%.
Turning to `O=C(Nc1ccc(Cl)cc1)N1CCN(c2ccc3nncn3n2)CC1`, the “growth inhibition at single dose” value was < 70%.
Consider `N#Cc1ccc(NC(=O)Nc2ccc(C#N)cc2)cc1`, for which the “growth inhibition at single dose” value was < 70%.
The same measure for `COc1ccc(-c2cc(=O)oc3c4c(ccc23)OCN(Cc2ccc(F)cc2)C4)cc1`: < 70%; for `CNc1snc(C)c1C(=O)OCc1coc(-c2cccs2)n1`: < 70%.
The result for `COc1ccc(C(=N)N)cc1-c1cn(-c2ccc(C(=N)N)cc2)nn1` reads < 70%; that for `O=C1N=C(Nc2cccnc2)S/C1=C/c1ccc2ncccc2c1`, < 70%.
Regarding `COCCN1COc2c(cc(Cl)c3cccnc23)C1`, the “growth inhibition at single dose” value is < 70%.
The same measure for `COc1ccc(-c2nc3cc(Cc4ccc5[nH]c(-c6ccc(OC)cc6)nc5c4)ccc3[nH]2)cc1`: < 70%.
On to `Cn1nnnc1SCC(=O)Nc1ccc(C(=O)Nc2ncccc2O)cc1`, for which the “growth inhibition at single dose” value is < 70%.
The result for `COC(=O)c1cc(C(=O)OC)cc(-n2c(C)cc(C(=O)Cn3ncc(Cl)c(Cl)c3=O)c2C)c1` reads < 70%; that for `COc1cccc2c(C)nc(N=C(N)N)nc12`, < 70%; that for `NC(=O)c1cc(Br)ccc1OCCOc1ccccc1`, < 70%.
Consider `O=C(NCc1nnc2n1CCCCC2)c1ccc(-c2ccc(F)cc2)o1`, for which the “growth inhibition at single dose” value was < 70%.
As for `CC(=O)Nc1ccc(NC(=O)c2cc(-c3cc(Cl)ccc3O)[nH]n2)cc1`, the “growth inhibition at single dose” value was < 70%.
On to `CC(C)CCNCC(O)Cn1c2ccccc2c2ccccc21` (configuration not stated), for which the “growth inhibition at single dose” value is < 70%.
The result for `CCn1nc(C(=O)NCc2ccc(OC)cc2)c2c1CCN(C(=O)c1cc(C)n[nH]1)C2` reads < 70%; that for `CCCc1cc(O)c2c3c(c(=O)oc2c1)CN(C)CC3`, < 70%; that for `Cc1cc(C(=O)COC(=O)c2ccccc2C(F)(F)F)c(C)n1Cc1ccccc1Cl`, < 70%.
Turning to `Cc1cc(C)c2nc(N3CCC(C(=O)NCCCN4CCC(N5CCCCC5)CC4)CC3)sc2c1`, the “growth inhibition at single dose” value was < 70%.
The same measure for `CCCCc1ccc(NS(=O)(=O)c2cc3c4c(c2)CCN4C(=O)CC3)cc1`: < 70%; for `COc1ccc(Nc2cc(C)nc(NCc3ccccc3)n2)cc1`: < 70%.
The result for `O=C(NCCc1c[nH]c2ccccc12)c1cc2ccccc2oc1=O` reads < 70%; that for `CCOC(=O)c1cnc2ccc(OC)cc2c1Nc1ccc(N2CCN(C)CC2)cc1`, < 70%; that for `O=C(c1ccc(F)cc1)N(CCNc1ccccc1)c1ccccc1`, < 70%.
Turning to `CC(Oc1ccc(Cl)cc1)C(=O)Nc1sccc1C(N)=O` (configuration not stated), the “growth inhibition at single dose” value is < 70%.
As for `COc1ccc(C(=O)Nc2ccc(Cl)cc2C(=O)Nc2ccncc2)cc1`, the “growth inhibition at single dose” value was < 70%.
Turning to `O=C1N/C(=N\C2CCCC2)S/C1=C\c1ccc2c(c1)OCCO2`, the “growth inhibition at single dose” value is < 70%.
The result for `CCOC(=O)C1=C(C)N=c2sc(=Cc3cc(Cl)ccc3O)c(=O)n2C1c1ccc(OC)cc1` (configuration not stated) reads < 70%.
In the case of `COc1ccc(OC)c(NCc2ccc3nc(N)nc(N)c3c2Cl)c1`, the “growth inhibition at single dose” value is < 70%.
For the molecule `CN1CCN(c2nc(Nc3ccc(O)cc3)nc3ccccc23)CC1`, the “growth inhibition at single dose” value is < 70%.
The result for `CC(C)(C)C(=O)Nc1ccc(C(=O)Nc2cccc(-c3nc4ccccc4[nH]3)c2)cc1` reads < 70%; that for `Cc1ccc(-n2c(C)cc(C(=O)COC(=O)c3ccc[nH]c3=O)c2C)cc1C`, < 70%; that for `COc1ccccc1OCCCCn1c(C2CC2)nc2ccccc21`, < 70%.
As for `CC1CS(=O)(=O)CCN1/N=C/c1ccc([N+](=O)[O-])o1` (configuration not stated), the “growth inhibition at single dose” value was < 70%.
The result for `O=C(NNc1cccc(F)n1)C(F)(F)F` reads < 70%; that for `CC(C)(C)c1ccc(N[C@@H]2CCCC[C@H]2NC(=O)c2ccco2)cc1`, < 70%.
The result for `CNC(=O)c1cc(S(=O)(=O)N2CCN(c3ccccn3)CC2)cs1` reads < 70%.
As for `OC(c1cn2cc(-c3ccccc3)nc2s1)(C(F)(F)F)C(F)(F)F`, the “growth inhibition at single dose” value is < 70%.
The same measure for `COc1ccc(Cl)cc1NC(=O)CN(C)C(=O)c1cnn(-c2ccccc2)n1`: < 70%; for `Cc1cc(N2CCN(C)CC2)n2ncc(-c3ccc(F)cc3)c2n1`: < 70%; for `O=C(Nc1cc(Cl)cc(Cl)c1)c1cc(Br)ccc1O`: < 70%.
